According to PMC3983190, “Chemical Derivatives of a Small Molecule Deubiquitinase Inhibitor Have Antiviral Activity against Several RNA Viruses” (PLoS ONE, 2014):
Values after ≈ are worked out from the molar mass of the structure shown. Like-named read-outs stand apart in the source and are kept apart here.

Legend:
[1] = WST-1 cellular toxicity assay, HG23 replicon-bearing cells; type: cell-based; details: human, HG23 Norwalk virus replicon-bearing cells, WST-1 viability
[2] = system: RNA viruses; assay: Antiviral activity across the panel of RNA viruses tested; type: cell-based; details: 5 µM
Description: (§1) Cells were freeze-thawed twice.

[3] = mouse
[4] = WST-1 cellular toxicity assay, bone marrow-derived macrophages; details: Swiss Webster, mouse
[5] = Aqueous solubility as per Lipinski et al.; details: for solubility: kinetic from dmso stock
[6] = system: La Crosse virus (LCV); assay: La Crosse virus infection of Be2-c cells, plaque assay; type: cell-based; details: 5 µM, 30 minutes pre-treatment, MOI 5, 12 hours
Description: as §1

[7] = system: Encephalomyocarditis virus (EMCV); assay: Encephalomyocarditis virus infection of Vero cells, plaque assay; type: cell-based; details: 5 µM, 30 minutes pre-treatment, MOI 5, 12 hours
Description: as §1

[8] = system: Sindbis virus; assay: Sindbis virus infection of Vero cells, plaque assay; type: cell-based; details: 5 µM, 30 minutes pre-treatment, MOI 5, 12 hours
Description: as §1

[9] = system: Tulane virus; assay: Tulane virus infection of LLC-MK2 cells, plaque assay; type: cell-based; details: 5 µM, 30 minutes pre-treatment, MOI 5, 24 hours
Description: as §1

[10] = system: MNV-1; details: 5 µM; for decrease in MNV-1 titers compared to DMSO: 30 minute pre-treatment, RAW 264.7, 8 hours; for viral titer decrease compared to DMSO: administered 1 hour post infection, RAW 264.7
[11] = system: Norwalk virus; assay: HuNoV replicon assay in HG23 cells, Norwalk virus genomes by qRT-PCR; details: for reduction of detectable Norwalk virus genomes compared to DMSO: 5 µM, 24 hours, HG23 cells; for EC50: Norwalk virus, HG23, 24 h, read-out: EC50 HG23
[12] = system: Vesicular Stomatitis Virus (VSV); type: cell-based
[13] = system: MNV-1; details: previously determined by the authors; cited from earlier work
[14] = in vitro; details: mouse
[15] = in vitro; details: Swiss Webster, mouse
[16] = physchem; details: kinetic from dmso stock

| Structure (SMILES) | CC50 at 24 h [1] [µM] | antiviral activity against any of the viruses tested [2] | CC50 [3] [µM] | CC50 [4] [µM] | solubility [5] [µM] | effect on La Crosse virus infectious titers [6] | effect on EMCV infectious titers [7] | effect on Sindbis virus infectious titers [8] | effect on Tulane virus infectious titers [9] | expected aqueous solubility (not determined, limited availability) ([5]; relative to WP1130) | decrease in MNV-1 titers compared to DMSO [10] [log] | viral titer decrease compared to DMSO [10] [log] | reduction of detectable Norwalk virus genomes compared to DMSO [11] | EC50 [11] [µM] | inhibition of VSV infection [12] | EC50 [13] [µM] | CC50 [14] [µM] | CC50 [15] [µM] | solubility [16] [µM] |
| --- | --- | --- | --- | --- | --- | --- | --- | --- | --- | --- | --- | --- | --- | --- | --- | --- | --- | --- | --- |
| CCC[C@H](NC(=O)/C=C/c1cccc(Br)n1)c1ccccc1 [Compound 1] | 7.2 | no antiviral activity | 24.7 | 10.4 | – | – | – | – | – | – | – | – | – | – | – | – | – | – | – |
| CCC[C@H](NC(=O)C(C#N)Cc1cccc(Br)n1)c1ccccc1 (stereo partly drawn) [Compound 2] | 8.71 | no antiviral activity | 24.9 | 8.53 | – | – | – | – | – | – | – | – | – | – | – | – | – | – | – |
| CCCC(NC(=O)/C(C#N)=C/c1cccc(Br)n1)c1ccc(OCCN(C)C)cc1 (stereo not drawn) [Compound 3] | 7.82 | no effect | 9.43 | 6.12 | 19 (≈ 8.96 µg/mL) | – | – | – | – | – | – | – | – | – | – | – | – | – | – |
| CCC(NC(=O)/C(C#N)=C/c1cccc(Br)n1)c1ccc(O)cc1 (stereo not drawn) [Compound 4] | 9.26 | – | 11 | 15.2 | – | only effective against Tulane virus | only effective against Tulane virus | only effective against Tulane virus | effective | more soluble than WP1130 but less soluble than compound 7 | 1.95 | 1.73 | approximately 30% | 6.52 | – | – | – | – | – |
| CCCC(NC(=O)/C(C#N)=C/c1cccnc1F)c1ccc(OCCN2CCOCC2)cc1 (stereo not drawn) [Compound 5] | 7.61 | – | 15.4 | 11.3 | 14 (≈ 6.34 µg/mL) | only effective against Tulane virus | only effective against Tulane virus | only effective against Tulane virus | effective | – | 2.52 | 2.67 | about 64% | 4.28 | – | – | – | – | – |
| CCCC(NC(=O)/C(C#N)=C/c1ccccn1)c1ccc(OCCN2CCOCC2)cc1 (stereo not drawn) [Compound 6] | 10.4 | – | 7.46 | 11.1 | 160 (≈ 69.5 µg/mL) | significantly reduced infectious titers | significantly reduced infectious titers | significantly reduced infectious titers | significantly reduced infectious titers | – | 2.55 | 2.50 | about 64% | 4.17 | – | – | – | – | – |
| CCCC(NC(=O)/C(C#N)=C/c1cccc(F)n1)c1ccc(OCCN2CCOCC2)cc1 (stereo not drawn) [Compound 7] | 6.12 | – | 13.7 | 7.11 | 14 (≈ 6.34 µg/mL) | significantly decreased infection | not of EMCV, although a trend towards antiviral activity was present | significantly decreased infection | significantly decreased infection | – | 2.60 | 1.51 | ~80% | 3.37 | – | – | – | – | – |
| CCC[C@H](NC(=O)/C(C#N)=C/c1cccc(Br)n1)c1ccccc1 [WP1130, reference compound] | 6.2 | – | – | – | – | significantly reduced infectious titers | significantly reduced infectious titers | significantly reduced infectious titers | significantly reduced infectious titers | – | 2.0 | – | – | – | not inhibited | 5.06 | 9.95 | 6.46 | ~3.2 (≈ 1.23 µg/mL) |
